According to patent US20220280471A1, “Treatment of Affective Disorders” (Vanda Pharmaceuticals Inc., priority 2017, published 2022):

System: patients with MDD
Assay: Double-masked, placebo-controlled clinical study of tasimelteon in patients with MDD (NCT01428661), Hamilton Depression Scale
Type: in vivo, human
Experimental: A large clinical study was conducted to evaluate the effects of tasimelteon on depressive symptoms in patients with MDD. Details of the study design are set out in study number NCT01428661, available at clinicaltrials.gov. Aspects of the study relevant to the claimed invention are described below.
A total of 507 patients with MDD were enrolled in a double-masked, placebo-controlled study randomized on either tasimelteon 20 mg (n=254) or placebo (n=253). Patients were assessed at baseline and weekly for eight weeks on a number of depression scales, including the Hamilton Depression Scale (HAMD).

Q: With `CCC(=O)NC[C@@H]1C[C@H]1c1cccc2c1CCO2` (relative stereo) [Tasimelteon, trans-N-[[2-(2,3-dihydrobenzofuran-4-yl)cycloprop-1yl]methyl] propanamide] as the molecule, how does the “improvement on the HAMD scale” value (African-American MDD patients, at eight weeks, tasimelteon 20 mg (n=78), p=0.018 vs placebo) read?
A: Its value is 9.9 points.

Q: What about the “responder analysis (improvement in the HAMD scale of 50% or greater from baseline), patients showing improvement” value (African-American MDD patients, at eight weeks, tasimelteon 20 mg, p=0.0019 vs placebo) of the same molecule?
A: The value was 59%.

Q: And the “improvement from baseline on the HAMD scale” value (all randomized MDD patients, tasimelteon 20 mg (n=254), p=0.57 vs placebo)?
A: Its value is 8.1 points.
